Laboratory results: patent US9005965B2, “Stem cells culture systems” (Hadasit Medical Research Services & Development Limited, priority 2004, dated 2015)
“Also recorded” adds a separate entry of the source.

Columns and labels:
Type in all cases: cell-based, human
[1] = tested on: hESC-derived EBs; experiment: EB formation in presence or absence of nicotinamide: morphology, size, cell number; conditions: for number of cells versus controls: comparable number of starting cells
Protocol: (§1) Human ES cells were removed from the feeders by treatment with dispase (10 mg/ml; Gibco), and/or type IV collagenase (1 mg/ml; Gibco). The clusters of undifferentiated cells that were obtained were further triturated into smaller clumps within PBS. These clumps were cultured for various periods in suspension within bacteriological dishes precoated with 0.1% low melting temperature agarose in DMEM (Gibco), supplemented with 10-20% FCS (Biological Industries, Beit Haemek), 1 mM L-glutamine, 0.1 mM β-mercaptoethanol, 1% non-essential amino acid stock, 50 units/ml penicillin, 50 μg/ml streptomycin (all from Gibco Invitrogen Corporation products, USA) in the presence or absence of nicotinamide 10 mM (Sigma). In some experiments DMEM and FCS were replaced by 86% KO-DMEM and 14% KOSR or by Neurobasal medium supplemented by N2 (Gibco).

[2] = tested on: hESC-derived EBs; experiment: Immunocytochemical and RT-PCR analysis of EBs
Protocol: EBs that were developed 4 weeks in suspension culture in the presence and absence of nicotinamide (NA), were fixed in 4% paraformaldehyde at room temperature overnight. The EBs were then concentrated at the bottom of a centrifuge tube and embedded in agar. The agar blocks were dehydrated, and embedded in paraffin. 5-micron sections were immuno-stained with anti-human cytokeratin-8 and anti-α-fetoprotein (both at 1:50, monoclonal mouse IgG, DAKO). Primary antibody localization was performed using Picture™ plus kit (Zymed). For RT PCR analysis, total RNA was collected from EBs that were developed 4 weeks in suspension culture in the presence and absence of nicotinamide (NA). Total RNA was isolated using TRI REAGENT (Sigma) and converted into complementary cDNA with M-MLV reverse transcriptase (Promega). PCR was carried out using standard protocols with Taq DNA Polymerase (Promega). Amplification conditions were as follows: denaturation at 94° C. for 60 seconds, annealing at 55-60° C. for 60 seconds, and extension at 72° C. for 60 seconds. The number of cycles was 35 Primer sequences and lengths of amplified products were: […]

[3] = tested on: hESC-derived EBs; experiment: Neural precursor marker expression in EBs (FACS, indirect immunofluorescence)
Protocol: (§2) EBs were dissociated into smaller clusters mechanically with/without the aid of trypsin (0.025%, 3 mM EDTA in PBS) digestion. The small clusters of cells were plated on poly-D-lysine (30-70 kDa, 10 μg/ml; Sigma, St. Louis, Mo.) and laminin-coated (4 μg/ml; Sigma) glass coverslips and cultured for additional 3-5 weeks in the culture medium used for suspension culture of EBs or neural spheres. Differentiated cells within the outgrowth were fixed with 4% paraformaldehyde for 20 minutes at room temperature. Cell membranes were permeabilized with 0.2% Triton X100 (Sigma) in PBS for 5 minutes for immunostaining with ant-intracellular markers antibodies. The cells were incubated with the following primary antibodies: anti β-tubulin III (mouse monoclonal IgG2b, 1:2000, Sigma), anti human alphafetoprotein (mouse monoclonal IgG2a, 1:200, Sigma), anti human muscle actin (mouse monoclonal IgG1, 1:10, Dako) and anti human desmin (mouse monoclonal IgG1,κ, 1:10, Dako), anti-Pax6 (Developmental Studies Hybridoma Bank; mouse monoclonal IgG1, 1:100), anti-MITF (Lab Vision Corporation, Fremont, Calif.; mouse IgG1, 1:50), anti-RPE65 (Novus Biologicals, Littleton, Colo.; mouse IgG1, 1:300), anti-Bestrophin (Novus Biologicals, Littleton, Colo.; mouse IgG1, 1:150), anti-ZO-1 (Zymed Laboratories Inc., South San Francisco, Calif.; rabbit polyclonal, 1:10) and anti-CRALBP (kindly provided by John C. Saari, University of Washington, Seattle; rabbit polyclonal, 1:100).

[4] = tested on: hESC-derived EBs; experiment: Differentiation towards RPE (pigmented) cells within EBs
Protocol: as §1
Differentiation into neural spheres was conducted according to the published protocol (Itsykson, P., et al. Derivation of neural precursors from human embryonic stem cells in the presence of noggin. Mol Cell Neurpsci 30, 24-36 (2005). Spheres were dissociated mechanically by trituration. Pigmented clusters of cells within EBs, differentiating 8-10 weeks were mechanically dissected by glass micropipettes or scalpel blades.
as §2

[5] = tested on: hESC-derived EBs; experiment: Gene expression profile of EBs by affymetrix gene arrays
[6] = tested on: hESC; experiment: hESC culture on dishes pre-coated with different matrices; FACS marker expression
Protocol: Human embryonic fibroblasts derived from umbilical cord as described herein or foreskin fibroblasts were used as feeders. The feeders were plated in tissue culture dishes precoated with 1 μg/cm^2 human Fibronectin (BD Biosciences, Bedford, Mass.) or 100 μg/ml recombinant Gelatin (FibroGen, SF). Mitotic inactivation was carried out by incubating the feeders 2.5 hours with Mitomycin-C (Kyowa, Tokyo). KO DMEM (Gibco), X-Vivo 10 (Biowhittaker, Maryland), or Cellgro Stem Cell Growth Medium (CellGenix Freiburg, Germany) were used as the basic media. They were supplemented with TCH (1-2%; Protide Pharmaceuticals, St. Paul, Minn.) or Nutridoma-CS (2%; Roche, Germany) as serum substitutes. The media were supplemented with 2 mM glutamine (Hyclone, Utah) and non-essential amino acids (NEAA, 1%; Hyclone Utah). HESC were split weekly with Ca/Mg^++-free PBS supplemented with 0.05% EDTA.
FACS analysis of marker expression was performed on hESC after disaggregation using Ca/Mg^++-free PBS supplemented with 0.05% EDTA. The cells were then washed with FACS media consisting of PBS supplemented with 1% BSA and 0.05% sodium azide. The single cell suspension was stained with anti-SSEA4 (1:100, mouse monoclonal IgG3, Developmental Studies Hybridoma Bank (DHSB), Iowa City, Iowa), and anti-Tra-1-60 (1:20, monoclonal mouse IgM, gift from Prof. P. Andrews), anti-Tra-1-81 (1:100, monoclonal mouse IgM, Chemicon International), anti-human Oct 4 (mouse monoclonal IgG2b, 1:50, Santa Cruz), and anti-SSEA1 (1:100, Chemicon). Control hESC were stained with the respective isotype control antibodies. Primary antibodies were detected with a FITC-labeled goat anti-mouse Ig (1:100, Dako).

[7] = tested on: cord-derived fibroblasts; experiment: Propagation of cord-derived feeders with FGF2 supplementation; conditions: medium supplemented with FGF2; FIG. 16
Protocol: Term umbilical cord tissue was minced as above, and the small pieces of tissue were plated in the fibroblast culture medium, as described above. To promote the adherence of the tissue pieces to the culture dish, flasks were incubated upright overnight. Cells emanating from the tissue pieces were propagated as above.

[8] = tested on: hESC; experiment: Suspension culture of hESC in NBN2 medium; conditions: NBN2, in the presence of FGF2, 3 weeks
Protocol: In the course of the routine passaging procedure, HESC colonies were dissociated with 0.05% of EDTA for 7-10 min at 37°, or mechanically with the aid of collagenase IV (1 mg/ml, 120 min at 37°). Cell dissociation was promoted by gentle blowing of the medium with a 1 ml pipette tip towards the hESC colonies. The cells/cell-clusters were re-suspended in NBN2 medium (Neurobasal, N2 supplement 1:100, glutamine 2 mM, 50 units/ml penicillin, 50 μg/ml streptomycin) supplemented with bFGF 20 ng/ml, noggin 250 ng/ml, activin 25-50 ng/ml, fibronectin and laminin 5 ng/ml each, gelatin 0.001%. The suspension may be strained though 30-50 micron mesh to remove big clumps and transferred into tissue culture dishes (Costar®, Corning Inc., Corning, N.Y., USA) at a density of ˜0.7-1.2×10^6 cells/ml. Dead cells and their fragments were gradually removed during media refreshment and small transparent cell aggregates emerged from the 3rd-5th days of suspension culture. The cells proliferated as free-floating tiny clusters of 20-50 cells. Aggregation and overgrowth of clusters was prevented by their daily trituration with a 1000 μl pipettor tip. Alternatively, every 7 days clusters were dissociated with Ca/Mg-free PBS supplemented with 3 mM EDTA and 0.06% trypsin and the single cells were resuspended in fresh medium. […]

[9] = in the presence of NA, indirect immunofluorescence
[10] = 4 weeks suspension culture, presence vs absence of NA
[11] = Cellgro medium with 2% TCH, matrix coating

## NC(=O)c1cccnc1 [NA, nicotinamide]
[1]; EBs cultured in the presence of RA and NA
  development of cystic structures in EBs: infrequent; also recorded: blocked the effects of RA
[1]; NA 10 mM
  morphology of differentiated cells within EBs: acquired the morphology of neural precursor cells
[1]; NA treatment
  prolonged culture of EBs: 12 weeks
[1]; after 2 weeks
  number of cells versus controls: 5.4 times
[1]; after 4 weeks
  number of cells versus controls: 33 times
[1]; chemically-defined medium (NBN2), 2-5 weeks
  formation of cystic structures within EBs: not observed
[1]; medium with RA supplemented with NA
  effect of RA on number of differentiated cells: blocked
[1]; serum-free medium, two weeks of differentiation
  size of EBs (maximal diameter) versus EBs without NA: 1.7 times
[1]; serum-supplemented medium, NA 10 mM
  formation of cystic structures within EBs: not formed; also recorded: not observed
[2]; 4 weeks in the presence of NA, immunocytochemistry
  expression of cytokeratin-8 within EBs: not demonstrated; also recorded: only a few cells
[2]; differentiation in the presence of NA, immunocytochemistry and RT-PCR
  expression of α-fetoprotein within EBs: not detected; also recorded: suppressed; also recorded: only a few cells
[3]; 6 weeks in the presence of NA, FACS
  percentage of cells expressing PSA-NCAM: 85.5%
[3]; [9]
  percentage of cells expressing nestin: 58.3%
  percentage of cells expressing β-tubulin III: 67.8%
[4]; 5 weeks of differentiation in the presence of NA
  percentage of EBs that included clusters of pigmented cells: 34%
[4]; 6 weeks of differentiation in the presence of NA
  percentage of EBs that included clusters of pigmented cells: 59%
[4]; 12 weeks of differentiation in the presence of NA
  percentage of EBs that included clusters of pigmented cells: 70%
[4]; Real Time PCR, 6 weeks, versus control EBs
  expression of the RPE markers RPE65 and MITF A: significantly increased; also recorded: induction
[4]; after 6 weeks of differentiation
  percentage of cells within the EBs that were pigmented: 9%
[5]; [10]
  number of genes down-regulated: 630 genes
  number of genes up- or down-regulated by at least two-fold: 1072 genes
  number of genes up-regulated: 442 genes
[5]; gene arrays, confirmed by RT PCR
  expression of chordin-like-1 gene: up-regulated
[5]; gene arrays, 4 weeks
  expression of LEFT A & B and PITX1: down regulated
  expression of Wnt signaling pathway genes (Wnt4, Wnt 2B, FZD1, FZD2, FZD3, FZD10): induced
  expression of ZIC1: remarkably up-regulated
  expression of cytokeratins 7, 18, 19, 23: suppressed
  expression of α-fetoprotein and cytokeratin-8: suppressed

## gelatin
[6]; [11]
  percentage of SSEA-4+ cells: 97%
  percentage of Tra-1-60+ cells: 92%
[6]; foreskin feeder layer, KO DMEM+KO SR, plates precoated with the matrix
  percentage of SSEA-4+ hESC: 91%

## FGF2: growth factor supplementing the medium
[7]
  proliferation of the fibroblasts: could be augmented

B1: activin A: TGFβ superfamily factor, 25-50 ng/ml (protein, UniProt P08476 311-426, looked up)
Inhibin beta A chain: GLECDGKVNICCKKQFFVSFKDIGWNDWIIAPSGYHANYCEGECPSHIAGTSGSSLSFHSTVINHYRMRGHSPFANLKSCCVPTKLRPMSMLYYDDGQNIIKKDIQNMIVEECGCS
modifications: Inhibin beta A chain
notes: TGFβ superfamily factor, 25-50 ng/ml
[8]; FIG. 23A
  effect on differentiation of hESC in suspension: prevented differentiation

B2: noggin: BMPs antagonist, 250 ng/ml (protein, UniProt Q13253 28-232, looked up)
Noggin: QHYLHIRPAPSDNLPLVDLIEHPDPIFDPKEKDLNETLLRSLLGGHYDPGFMATSPPEDRPGGGGGAAGGAEDLAELDQLLRQRPSGAMPSEIKGLEFSEGLAQGKKQRLSKKLRRKLQMWLWSQTFCPVLYAWNDLGSRFWPRYVKVGSCFSKRSCSVPEGMVCKPSKSVHLTVLRWRCQRRGGQRCGWIPIQYPIISECKCSC
[8]; FIG. 23B
  effect on survival/proliferation of hESC in suspension: could promote survival/proliferation
